Our source for the Activity and IC50 values is ChEMBL document CHEMBL6083271 (J Med Chem, 2024).

Activity calls are given as the source filed them. The calls are words filed in the database; no cut-off is given here.

The nature of data set [1]: Toxicity in SCID mouse at 50 mg/kg, iv. Type of data set: organism-based. The following applies: in vivo.
Data set [2] deals with RS4-11. As to the kind of experiment: Antiproliferative activity against human RS4;11 cells harbouring p53 mutant assessed as inhibition of cell growth measured after 4 days by WST-8 assay. The data set is classed as functional, cell-based. The following applies: RS4-11, 96 h. Background: Tetrazolium assays rely on reduction of a dye to a coloured formazan, in cell work by metabolically active cells.

In data set [3] the test system is RS4-11. Description: Antiproliferative activity against human RS4;11 cells harbouring p53 wild type assessed as inhibition of cell growth measured after 4 days by WST-8 assay. The settings on record: RS4-11, 96 h. Type of data set: functional, cell-based.
The subject of data set [4] is RS4-11. Description: Upregulation of p53 level in human RS4;11 cells harbouring wild type p53 at 10 to 300 nM measured after 2 hrs by Western blot analysis. The data set is classed as functional, cell-based. The settings on record: dose 10-300 nM.
Data set [5] deals with RS4-11. As to the kind of experiment: Downregulation of MDM2 level in human RS4;11 cells harbouring wild type p53 at 10 to 300 nM measured after 2 hrs by Western blot analysis. Type of data set: functional, cell-based. The settings on record: dose 10-300 nM.
In data set [6] the target is Protein cereblon/Eukaryotic peptide chain release factor GTP-binding subunit ERF3A (Homo sapiens) (UniProt Q96SW2+P15170). Description: PROTAC activity at CRBN/GSPT1 in human RS4;11 cells assessed as induction of GSPT1 degradation at 10 to 1000 nM measured after 4 hrs by Western blot analysis. Type of data set: cell-based. The following applies: dose 10-1000 nM. Background: A western blot detects proteins with antibodies after separation by electrophoresis.

Data set [7] has as its system RS4-11. Description: Antiproliferative activity against human RS4;11 cells assessed as inhibition of cell growth measured after 4 days by WST-8 assay. Type of data set: functional, cell-based. The following applies: RS4-11, 96 h.
The test system of data set [8] is RS4-11. Description: Antitumor activity against human RS4;11 cells xenografted in SCID mouse model assessed as tumor regression at 50 mg/kg, iv qd administered every other for 2 weeks by caliper method. Type of data set: functional, organism-based. On the technique in general: In xenograft studies the graft and the host belong to different species.
Another data set has as its system ML-2. Description: Antiproliferative activity against human ML-2 cells assessed as inhibition of cell growth measured after 4 days by WST-8 assay. The data set is classed as functional, cell-based. The following applies: ML-2, 96 h.
For the next data set, the system named is OCI-AML2. As to the kind of experiment: Antiproliferative activity against human OCI-AML2 cells assessed as inhibition of cell growth measured after 4 days by WST-8 assay. The data set is classed as functional, cell-based. The following applies: OCI-AML2, 96 h.
A further data set concerns MOLM-14. As to the kind of experiment: Antiproliferative activity against human MOLM-14 cells assessed as inhibition of cell growth measured after 4 days by WST-8 assay. The data set is classed as functional, cell-based. The following applies: MOLM-14, 96 h.
Another data set concerns OCI-AML-3. Description: Antiproliferative activity against human OCI-AML-3 cells assessed as inhibition of cell growth measured after 4 days by WST-8 assay. Type of data set: functional, cell-based. The settings on record: OCI-AML-3, 96 h.
Another data set relates to MOLM-13. Description: Antiproliferative activity against human MOLM-13 cells assessed as inhibition of cell growth measured after 4 days by WST-8 assay. The data set is classed as functional, cell-based. The following applies: MOLM-13, 96 h.
Another data set has as its system SIG-M5. As to the kind of experiment: Antiproliferative activity against human SIG-M5 cells assessed as inhibition of cell growth measured after 4 days by WST-8 assay. Type of data set: functional, cell-based. The settings on record: SIG-M5, 96 h.
The test system of another data set is OCI-AML-5. Description: Antiproliferative activity against human OCI-AML5 cells assessed as inhibition of cell growth measured after 4 days by WST-8 assay. The data set is classed as functional, cell-based. The settings on record: OCI-AML-5, 96 h.
Data set [9] deals with MV4-11. Description: Antiproliferative activity against human MV4-11 cells assessed as inhibition of cell growth measured after 4 days by WST-8 assay. The settings on record: MV4-11, 96 h. Type of data set: functional, cell-based.
The subject of data set [10] is RS4-11. Description: Antitumor activity against human RS4;11 cells xenografted in SCID mouse model assessed as tumor regression at 50 mg/kg, iv qd administered every other for 2 weeks and measured upto 30 days by caliper method relative to control. Type of data set: functional. The settings on record: time <= 30 day.
The subject of data set [11] is MV4-11. Description: Upregulation of PUMA mRNA level in human MV4-11 cells at 300 nM by qRT-PCR analysis. Type of data set: functional, cell-based.
For data set [12], the system named is RS4-11. Description: Upregulation of PUMA mRNA level in human RS4;11 cells at 300 nM measured after 3 hrs by qRT-PCR analysis. The data set is classed as functional, cell-based.
Data set [13] concerns RS4-11. Description: Antiproliferative activity against human RS4;11 cells assessed as inhibition of cell growth measured after 4 days in presence of lenalidomide by WST-8 assay. The data set is classed as functional, cell-based. The settings on record: time 4.0 day.
The subject of data set [14] is RS4-11. As to the kind of experiment: Upregulation of MDM2 mRNA level in human RS4;11 cells at 300 nM measured after 3 hrs by qRT-PCR analysis. Type of data set: functional, cell-based.
In data set [15] the test system is MV4-11. As to the kind of experiment: Upregulation of MDM2 mRNA level in human MV4-11 cells at 300 nM by qRT-PCR analysis. The data set is classed as functional, cell-based.
Data set [16] deals with RS4-11. As to the kind of experiment: Effect of p53 mRNA level in human RS4;11 cells at 300 nM by qRT-PCR analysis. Type of data set: functional, cell-based.
The test system of data set [17] is MV4-11. Description: Upregulation of p21 mRNA level in human MV4-11 cells at 300 nM by qRT-PCR analysis. Type of data set: functional, cell-based.
Data set [18] has as its system MV4-11. As to the kind of experiment: Antiproliferative activity against human MV4-11 cells assessed as inhibition of cell growth measured after 4 days in presence of lenalidomide by WST-8 assay. The data set is classed as functional, cell-based. The following applies: time 4.0 day.
Data set [19] has as its system RS4-11. Description: Upregulation of p21 mRNA level in human RS4;11 cells at 300 nM measured after 3 hrs by qRT-PCR analysis. The data set is classed as functional, cell-based.
Data set [20] is described as follows: Toxicity in female NOD-SCID mouse assessed as effect on body weight at 50 mg/kg, iv qd. The data set is classed as organism-based. The settings on record: in vivo.
In data set [21] the test system is RS4-11. Description: Antitumor activity against human RS4;11 cells xenografted in female NOD-SCID mouse model assessed as tumor regression at 50 mg/kg, iv administered every other day for 2 weeks by vernier method relative to control. The data set is classed as functional.
The test system of data set [22] is RS4-11. As to the kind of experiment: Antitumor activity against human RS4;11 cells xenografted in SCID mouse model assessed as tumor regression at 50 mg/kg, iv qd administered every other for 2 weeks by caliper method relative to control. Type of data set: functional.

Sequence of Protein cereblon/Eukaryotic peptide chain release factor GTP-binding subunit ERF3A (Homo sapiens) (P15170 whole entry, looked up): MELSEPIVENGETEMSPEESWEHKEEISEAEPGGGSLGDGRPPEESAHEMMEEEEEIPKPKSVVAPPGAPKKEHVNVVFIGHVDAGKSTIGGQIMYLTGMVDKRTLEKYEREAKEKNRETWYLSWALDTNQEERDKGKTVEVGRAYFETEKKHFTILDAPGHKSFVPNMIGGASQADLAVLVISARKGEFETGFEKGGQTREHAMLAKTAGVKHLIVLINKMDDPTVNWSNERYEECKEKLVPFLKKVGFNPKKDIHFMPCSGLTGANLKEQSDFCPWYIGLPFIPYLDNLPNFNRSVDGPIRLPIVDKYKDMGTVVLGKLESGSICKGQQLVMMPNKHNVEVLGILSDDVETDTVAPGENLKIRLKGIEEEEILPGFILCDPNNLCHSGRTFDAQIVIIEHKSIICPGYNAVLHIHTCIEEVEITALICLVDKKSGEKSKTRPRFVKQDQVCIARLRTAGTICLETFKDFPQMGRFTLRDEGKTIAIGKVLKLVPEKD
Sequence of Protein cereblon/Eukaryotic peptide chain release factor GTP-binding subunit ERF3A (Homo sapiens) (Q96SW2 whole entry, looked up): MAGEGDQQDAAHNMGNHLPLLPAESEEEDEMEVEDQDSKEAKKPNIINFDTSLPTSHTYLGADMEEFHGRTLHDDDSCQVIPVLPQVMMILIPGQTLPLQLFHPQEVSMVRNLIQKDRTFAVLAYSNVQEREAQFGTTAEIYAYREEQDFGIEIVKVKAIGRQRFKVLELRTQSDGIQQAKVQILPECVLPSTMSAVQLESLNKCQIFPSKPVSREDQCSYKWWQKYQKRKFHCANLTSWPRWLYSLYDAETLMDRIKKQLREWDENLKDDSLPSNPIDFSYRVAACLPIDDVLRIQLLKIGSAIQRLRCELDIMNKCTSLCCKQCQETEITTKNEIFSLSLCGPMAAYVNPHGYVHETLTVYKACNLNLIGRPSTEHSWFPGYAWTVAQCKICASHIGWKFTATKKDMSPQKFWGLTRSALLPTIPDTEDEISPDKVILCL

Regarding `O=C1CCC(N2Cc3c(NCc4cn(CCCNC(=O)c5ccc(NC(=O)[C@@H]6NC7(CCCCC7)[C@@]7(C(=O)Nc8cc(Cl)ccc87)[C@H]6c6cccc(Cl)c6F)cc5)cn4)cccc3C2=O)C(=O)N1` (some centres not stated), the Activity entry in data set [1] is recorded as “Toxic”. The IC50 with RS4-11 [2] is 180 nM; in the data set on RS4-11 [3], 6 nM.
For the compound `O=C(O)c1ccc(NC(=O)[C@@H]2NC3(CCCCC3)[C@@]3(C(=O)Nc4cc(Cl)ccc43)[C@H]2c2cccc(Cl)c2F)cc1`, the outcome in the data set on RS4-11 [4] was Active. Further, the result with RS4-11 [5] was inactive.
On to `O=C1CCC(N2Cc3c(C#CCCCNC(=O)c4cccc(NC(=O)[C@@H]5NC6(CCCCC6)[C@@]6(C(=O)Nc7cc(Cl)ccc76)[C@H]5c5cccc(Cl)c5F)c4)cccc3C2=O)C(=O)N1` (some centres not stated), for which the IC50 with RS4-11 [2] and in the data set on RS4-11 [3] was 3 nM in each case. In data set [6], the result was Active.
Regarding `O=C1CCC(N2Cc3c(C#CCCCNC(=O)[C@H]4CC[C@H](NC(=O)[C@@H]5NC6(CCCCC6)[C@@]6(C(=O)Nc7cc(Cl)ccc76)[C@H]5c5cccc(Cl)c5F)CC4)cccc3C2=O)C(=O)N1` (some centres not stated), the IC50 in the data set on RS4-11 [7] was 1 nM; in the data set on RS4-11 [2], > 1000 nM; in the data set on RS4-11 [3], 0.9 nM. Moreover, the result in the data set on RS4-11 [8] was Active.
Regarding `O=C1CCC(N2Cc3c(C#CC4CCN(C(=O)c5ccc(NC(=O)[C@@H]6NC7(CCCCC7)[C@@]7(C(=O)Nc8cc(Cl)ccc87)[C@H]6c6cccc(Cl)c6F)cc5)CC4)cccc3C2=O)C(=O)N1` (some centres not stated), the 50% inhibitory concentration (IC50) with ML-2 was determined as 11 nM; in the data set on OCI-AML2, 113 nM; in the data set on RS4-11 [7], 3 nM; in the data set with MOLM-14, 76 nM; in the data set with OCI-AML-3, 7750 nM; in the data set on RS4-11 [2] it was 50 nM. For the same compound, the IC50 is 37 nM with MOLM-13; 103 nM in the data set on SIG-M5; 148 nM in the data set on OCI-AML-5; 4 nM in the data set with RS4-11 [3]; 14 nM in the data set on MV4-11 [9]. Further, the Activity in the data set with RS4-11 [10] is reported as 100%.
Turning to `O=C(N[C@H]1CC[C@H](C(=O)O)CC1)[C@@H]1NC2(CCCCC2)[C@@]2(C(=O)Nc3cc(Cl)ccc32)[C@H]1c1cccc(Cl)c1F`, the Activity result was “Active; Less Effective Than Md-265” with MV4-11 [11]; “Active; Least Effect” in the data set on RS4-11 [12]; “Active; Compound Showed Modest Inhibition Of Cell Growth” in the data set with RS4-11 [13]; “Active; Least Effect” with RS4-11 [14]; “Active; Less Effective Than Md-265” with MV4-11 [15]; “Active; Less Effective Than Md-265” in the data set with MV4-11 [17]. Also, the Activity entry was “Active; Compound Showed Minimal Effect” in the data set with MV4-11 [18] and “Active; Least Effect” in the data set with RS4-11 [19]. For the same compound, the IC50 with RS4-11 [7] stood at 179 nM; in the data set with MV4-11 [9], 93 nM. For the same compound, the outcome in the data set on RS4-11 [16] was inactive.
Regarding `O=C1CCC(N2Cc3c(C#CCCCNC(=O)c4ccc(NC(=O)[C@@H]5NC6(CCCCC6)[C@@]6(C(=O)Nc7cc(Cl)ccc76)[C@H]5c5cccc(Cl)c5F)cc4)cccc3C2=O)C(=O)N1` (some centres not stated), the Activity entry in data set [20] is “Non-toxic”; in the data set on RS4-11 [21], 100%; in the data set on RS4-11 [22], 100%. In addition, the IC50 with RS4-11 [7] is 2 nM; in the data set with RS4-11 [2], > 1000 nM; in the data set with RS4-11 [3], 4 nM; with MV4-11 [9], 7 nM.

As a reminder, the IC50 is the concentration needed to halve the response being measured.
